From US20100041089A1, “IMPROVED METHOD FOR DETECTING CHEMICAL […]” (priority 2006, published 2010)

Tested on: yeast genes (expressed mRNA)
Experiment: DNA chip measurement of expressed mRNA of yeast genes after culture with a toxic chemical substance
Type: cell-based, Saccharomyces cerevisiae S288C
Method: Yeast (Saccharomyces cerevisiae S288C (a SUC2mal mel gap2 CUP1)) were cultured at 25° C. on YPD medium (yeast extract 1%, polypeptone 2%, glucose 2%). One of toxic chemical substances was added to the cell at logarithmic growth phase, and the cell was further cultured for two hours. Cell was cultured without any chemical substance in the same condition, and was used as a control. Concentrations of the chemical substances were defined to inhibit the growth of the yeast but not lead to death.
After the completion of cultivation, the culture was centrifuged to collect the cells. To the cells, sodium acetate buffer (50 mM sodium acetate, 10 mM EDTA, 1% SDS) was added, and the mixture was shaken at 65° C. for five minutes, followed by returning to room temperature, and obtaining the supernatant, which procedure was repeated two times. To the supernatant, ½ amount of a solution of phenol/chloroform (1:1) was added, and the mixture was centrifuged to give a supernatant, an equal amount of chloroform was added, and the mixture was centrifuged to give a supernatant. To the supernatant, an equal amount of isopropanol containing 0.3 M sodium acetate was added, and the mixture was allowed to stand at room temperature for 30 minutes, after which the mixture was centrifuged to give sediment of the whole RNAs. Seventy % ethanol was added to the sediment, and the mixture was again centrifuged to give sediment, which was then dried and dissolved in water. mRNA was isolated from the whole RNAs as followings. In view of the fact that a poly A chain is attached to the 3′ terminus of mRNA, a polynucleotide having a poly T structure which was immobilized on the surface of latex beads was used to trap the mRNA, and then the mRNA was washed and eluted with spine column (Oligotex-dT30<Super>mRNA Purification Kit, Takara). Reverse transcription of the mRNA was conducted with a reverse transcriptase (Super Script II Reverse Transcriptase; catalogue No. 18064-014, GibcoBRL) using fluorescence-labeled nucleotides to give cDNAs that were introduced with Cy3-dUTP or Cy5-dUTP during the reverse transcription.
The labeled cDNAs were dissolved in TE buffer (10 mM Tris-HCl/1 mM EDTA, pH 8.0), and the solution was dropped on the DNA chip containing the whole genes of yeast (DNA Chip Research Inc. Japan) so that the cDNAs were hybridized on the DNA chip at 65° C. for over 12 hours. The fluoresces intensity of the DNA chip was read with a scanner, and the ratio relative to the fluorescence intensity resulting from the absence of chemical substance was estimated as the following, which is shown in Tables 1 to 9.
In the Tables, “Intensity” indicated in the rightmost column is a value of the level of expressed mRNA of each gene in control cells as divided by the average level of the expressions of the whole genes. A gene of which mRNA level is lower in control, and is higher in cases of addition of chemical substance, is especially useful in the detection of toxic substances.
Here, when a ratio of an amount of mRNA expressed in the presence of the chemical substance to an amount of mRNA expressed in the absence of the chemical substance is two or more, then it is considered significant.

In the case of CCCCCCCCCCCCOS(=O)(=O)[O-].[Na+] [(18), Sodium lauryl sulfate], the “The level of expressed mRNA in the presence of chemical substance/The level of expressed mRNA in the absence of chemical substance” value (yeast gene YJR054W, cultured two hours with substance) was 0.9, the “The level of expressed mRNA in the presence of chemical substance/The level of expressed mRNA in the absence of chemical substance” value (yeast gene YKL034W, cultured two hours with substance) was 1.2 and the “The level of expressed mRNA in the presence of chemical substance/The level of expressed mRNA in the absence of chemical substance” value (yeast gene YKL071W, cultured two hours with substance) was 0.9. For the same molecule, the “The level of expressed mRNA in the presence of chemical substance/The level of expressed mRNA in the absence of chemical substance” value (yeast gene YKL086W, cultured two hours with substance) was 1.0, the “The level of expressed mRNA in the presence of chemical substance/The level of expressed mRNA in the absence of chemical substance” value (yeast gene YKL151C, cultured two hours with substance) was 1.8 and the “The level of expressed mRNA in the presence of chemical substance/The level of expressed mRNA in the absence of chemical substance” value (yeast gene YKL153W, cultured two hours with substance) was 1.3. For the same molecule, the “The level of expressed mRNA in the presence of chemical substance/The level of expressed mRNA in the absence of chemical substance” value (yeast gene YKL195W, cultured two hours with substance) was 1.6, the “The level of expressed mRNA in the presence of chemical substance/The level of expressed mRNA in the absence of chemical substance” value (yeast gene YKR049C, cultured two hours with substance) was 3.3 and the “The level of expressed mRNA in the presence of chemical substance/The level of expressed mRNA in the absence of chemical substance” value (yeast gene YKR091W, cultured two hours with substance) was 1.3. For the same molecule, the “The level of expressed mRNA in the presence of chemical substance/The level of expressed mRNA in the absence of chemical substance” value (yeast gene YLL056C, cultured two hours with substance) was 2.5, the “The level of expressed mRNA in the presence of chemical substance/The level of expressed mRNA in the absence of chemical substance” value (yeast gene YLR008C, cultured two hours with substance) was 4.9 and the “The level of expressed mRNA in the presence of chemical substance/The level of expressed mRNA in the absence of chemical substance” value (yeast gene YLR031W, cultured two hours with substance) was 1.2. For the same molecule, the “The level of expressed mRNA in the presence of chemical substance/The level of expressed mRNA in the absence of chemical substance” value (yeast gene YLR046C (detoxification protein gene)) was 5.4, the “The level of expressed mRNA in the presence of chemical substance/The level of expressed mRNA in the absence of chemical substance” value (yeast gene YLR054C, cultured two hours with substance) was 1.1 and the “The level of expressed mRNA in the presence of chemical substance/The level of expressed mRNA in the absence of chemical substance” value (yeast gene YLR149C, cultured two hours with substance) was 3.0. The “The level of expressed mRNA in the presence of chemical substance/The level of expressed mRNA in the absence of chemical substance” value (yeast gene YLR152C, cultured two hours with substance) was 1.8, the “The level of expressed mRNA in the presence of chemical substance/The level of expressed mRNA in the absence of chemical substance” value (yeast gene YLR194C, cultured two hours with substance) was 0.9 and the “The level of expressed mRNA in the presence of chemical substance/The level of expressed mRNA in the absence of chemical substance” value (yeast gene YLR324W, cultured two hours with substance) was 1.2. For the same molecule, the “The level of expressed mRNA in the presence of chemical substance/The level of expressed mRNA in the absence of chemical substance” value (yeast gene YLR327C) was 5.3, the “The level of expressed mRNA in the presence of chemical substance/The level of expressed mRNA in the absence of chemical substance” value (yeast gene YLR346C, cultured two hours with substance) was 7.8 and the “The level of expressed mRNA in the presence of chemical substance/The level of expressed mRNA in the absence of chemical substance” value (yeast gene YLR350W, cultured two hours with substance) was 1.1. For the same molecule, the “The level of expressed mRNA in the presence of chemical substance/The level of expressed mRNA in the absence of chemical substance” value (yeast gene YLR387C, cultured two hours with substance) was 1.4, the “The level of expressed mRNA in the presence of chemical substance/The level of expressed mRNA in the absence of chemical substance” value (yeast gene YLR460C, cultured two hours with substance) was 1.1 and the “The level of expressed mRNA in the presence of chemical substance/The level of expressed mRNA in the absence of chemical substance” value (yeast gene YML117W, cultured two hours with substance) was 1.3. For the same molecule, the “The level of expressed mRNA in the presence of chemical substance/The level of expressed mRNA in the absence of chemical substance” value (yeast gene YML128C, cultured two hours with substance) was 5.5, the “The level of expressed mRNA in the presence of chemical substance/The level of expressed mRNA in the absence of chemical substance” value (yeast gene YMR009W, cultured two hours with substance) was 2.5 and the “The level of expressed mRNA in the presence of chemical substance/The level of expressed mRNA in the absence of chemical substance” value (yeast gene YMR067C, cultured two hours with substance) was 1.0. The “The level of expressed mRNA in the presence of chemical substance/The level of expressed mRNA in the absence of chemical substance” value (yeast gene YMR090W, cultured two hours with substance) was 2.8, the “The level of expressed mRNA in the presence of chemical substance/The level of expressed mRNA in the absence of chemical substance” value (yeast gene YMR095C, cultured two hours with substance) was 1.0 and the “The level of expressed mRNA in the presence of chemical substance/The level of expressed mRNA in the absence of chemical substance” value (yeast gene YMR097C, cultured two hours with substance) was 1.8. For the same molecule, the “The level of expressed mRNA in the presence of chemical substance/The level of expressed mRNA in the absence of chemical substance” value (yeast gene YMR102C, cultured two hours with substance) was 2.8, the “The level of expressed mRNA in the presence of chemical substance/The level of expressed mRNA in the absence of chemical substance” value (yeast gene YMR107W, cultured two hours with substance) was 8.1 and the “The level of expressed mRNA in the presence of chemical substance/The level of expressed mRNA in the absence of chemical substance” value (yeast gene YMR180C, cultured two hours with substance) was 1.7. The “The level of expressed mRNA in the presence of chemical substance/The level of expressed mRNA in the absence of chemical substance” value (yeast gene YMR184W, cultured two hours with substance) was 2.0, the “The level of expressed mRNA in the presence of chemical substance/The level of expressed mRNA in the absence of chemical substance” value (yeast gene YMR191W, cultured two hours with substance) was 2.1 and the “The level of expressed mRNA in the presence of chemical substance/The level of expressed mRNA in the absence of chemical substance” value (yeast gene YMR295C, cultured two hours with substance) was 3.4. For the same molecule, the “The level of expressed mRNA in the presence of chemical substance/The level of expressed mRNA in the absence of chemical substance” value (yeast gene YMR316W, cultured two hours with substance) was 6.4, the “The level of expressed mRNA in the presence of chemical substance/The level of expressed mRNA in the absence of chemical substance” value (yeast gene YNL044W, cultured two hours with substance) was 3.4 and the “The level of expressed mRNA in the presence of chemical substance/The level of expressed mRNA in the absence of chemical substance” value (yeast gene YNL074C, cultured two hours with substance) was 1.3.
